# Assay results reported in patent US10261017B2, “Methods for detecting and categorizing skin sensitizers” (University of Mississippi, priority 2014, dated 2019).
# Several values for one entry are separate records, joined by “and”; a condition that tells them apart may be missing. Identical values can stand only once. Like-named read-outs stand apart in the source and are kept apart here. Marks after values point to notes of the source that are not given here.
# Legend:
# [1] = Microplate spectrophotometric method (DCYA assay), fluorescence end-point; conditions: for DCYA 100-RI: RI = reactivity index, 2 equiv. electrophile, pH 10 buffer; for DCYA assay reactivity / classification in words: microplate spectrophotometric method
# [2] = NMR method: depletion of electrophile signal on reaction with DCYA
# Text: The described example can be applied to pure chemicals and mixtures. The method includes the acquisition of at least one NMR spectrum, mixing an electrophile and a nucleophile to acquire an array of control spectra and an addition of catalyst to record an array of reaction spectra. It also includes the quantification of at least one signal and the comparison of the signal with a control and the classification of the reaction based on the depletion of potential sensitizer based on the quantified residual signal.
# 2,5-Dimethylfuran was used as internal standard. When necessary, characterization of the product(s) formed during the reaction(s) was performed by homonuclear ^1H connectivities using 2D-COSY experiments. […] Two- and three bond ^1H-^13C connectivities were determined by gradient-HMBC experiments in which the evolution period for long-range ^1H-^13C coupling constants was optimized for a ^2,3JC,H of 8 Hz. Through-space ^1H connectivities were determined using a NOESY experiment with a mixing time of 0.450 s. […] Toronto, Canada].
# In a 3 mm NMR tube, 1 volume of DCYA (100) mM in CDCl3) was mixed with one volume of sensitizer (100 mM in CDCl3) to give a final concentration of 50 mM for both DCYA and the sensitizer. Control ^1H NMR spectra (reference spectra) were recorded at regular intervals of for a minimum of 5 min. […] All spectra were recorded at constant temperature. All experiments were conducted using the manufacturer's standard presaturation pulse programs and experimental conditions were chosen as explained in NMR spectroscopy section. The progress of the reaction was followed by the diminished peak areas of the resonances for the signal of interest. The spectra were phased, referenced, and integrated using NMR data elaboration software. The structural characterizations of the resulting adducts were confirmed by conducting additional 2D-NMR experiments when necessary.
# Covalent reaction of DCYA with carvone is dependent on the activation of the nucleophilic group (ex. sulfhydryl group to the reactive thio-anion) under basic conditions. This reaction is strongly dependent on the nature of the nucleophile and may be modulated by careful choice of the model nucleophile and the reaction conditions.
# The control spectra are used as reference spectra (FIG. 3A). All the spectra were subjected to automatic phase and baseline correction using a Bernstein polynomial fit (order 3). After these two steps, all the spectra were integrated over the areas of interest. […] Both vinylic and adduct peak areas were normalized relative to the internal standard signal peaks. […] The concentrations of both electrophile and adduct were then plotted as percentage against time (in minutes). (FIG. 5).
# [3] = TLC monitoring of DCYA reactions with electrophiles; conditions: pH 10 buffer, 1-2.5 equiv. electrophile
# Text: For visualization purposes, the controls, blank and reactions were monitored by TLC on silica gel plates. A known volume of each sample was loaded on a silica gel plate and eluted with appropriate solvent system. The TLC plates were examined λ366 for the presence of the yellow fluorescence spots corresponding DCYA, its dimer or possible reaction products.
# In order to minimize the competition between auto-dimerization [(DCYA)2] and nucleophilic addition, the reaction time and the electrophile:nucleophile stoichiometry were optimized. Massoia lactone at different concentrations was used to monitor the progress of the reaction by TLC (FIG. 11). […] In order to adequately discriminate between compounds with variable electrophilic strength, the assay was optimized using 2 equivalents of electrophile.
# [4] = Fluorescent response of DCYA in acetonitrile over time; assay type: physicochemical; conditions: micromolar solutions, after 3 h at room temperature
# Protocol: The fluorescent responses of DCYA and DCYA disulfide in ACN were investigated at different concentrations using 1-300 μL/well in a 96 microplate reader at room temperature. Pure acetonitrile was used as a solvent control. The optimum excitation and emission wavelength combination was determined by performing excitation and emission scans. […] At these wavelengths, no solvent interference was observed. […] A linear response for DCYA was observed between 5-80 μM ([…]) concentrations with a R^2=0.995.
# [5] = cited from earlier work
# [6] = pH 10
smiles,measurement,setting,value
CCCCC[C@@H]1CC=CC(=O)O1 [Massoia lactone],"Fluorescence response, Reaction (R), average of 9 readings","[1]; DCYA + test article + pH 10 buffer + resin, listed as ML",6064.127 RFU and 6064 RFU
same,DCYA 100-RI,[1],12.8
same,NMR assay reactivity / classification in words,[2],moderate to strong skin sensitizer
same,Conversion at t30 (depletion of electrophile signal),"[2]; at 30 min, 1 equiv. DCYA, listed as Massoialactone",59%
same,Conversion at t30 (depletion of electrophile signal),"[2]; at 30 min, 1 equiv. DCYA, listed as massoia lactone",60%
same,NMR Classification,[2]; based on depletion of electrophile signal at 30 min,Moderate-strong
same,NMR Method conversion,"[2]; conversion of test chemical at 90 min, 1 equiv. DCYA, 0.1 equiv. DBN, CDCl3",66%
same,TLC: adduct formation with DCYA,[3],only a partial reaction was achieved
"CN(C)c1cccc2c(S(=O)(=O)NCCS)cccc12 [DCYA, 5-(dimethylamino)-N-(2-mercaptoethyl)naphthalene-1-sulfonamide]",Loss of fluorescence response,[4],1.5-3.0%
C=C1C(=O)O[C@@H]2/C=C(\C)CC/C=C(\C)CC[C@@H]12 [Costunolide],Result in human patch tests,[5]; reported in literature,Positive in human patch tests^6
same,DCYA 100-RI,[1],−8.5
same,DCYA binary classification: FN,[1]; false negative,0
same,DCYA binary classification: FP,[1]; false positive,0
same,DCYA assay reactivity / classification in words,[1],strongly reactive
same,DCYA assay reactivity / classification in words,[1]; listed as costunolide,strong sensitizers
same,DCYA binary classification: TN,[1]; true negative,0
same,DCYA binary classification: TP,"[1]; true positive, positive if 100-RI <95",1
same,NMR Classification,[2],Strong
same,NMR Method conversion,"[2]; 10 min, 50 mM",>97* %
same,Conversion at t30 (depletion of electrophile signal),"[2]; 30 min, 50 mM",97%
C=C1C(=O)O[C@@H]2C[C@@]3(C)CCC[C@H](C)C3=C[C@H]12 [Alantolactone],DCYA 100-RI,[6],−6.7
same,Result in human patch tests,[5]; in vivo,Positive in human patch tests^6
same,Conversion at t30 (depletion of electrophile signal),[2],99%
same,NMR Classification,[2],Strong
same,NMR Method conversion,[2],>99* %
